Reference: patent publication US11999806B2, “Broad-spectrum polypeptide against enterovirus and application thereof” (WUHAN INSTITUTE OF VIROLOGY, CHINESE ACADEMY OF SCIENCES, priority 2018, dated 2024)
Values joined by “and” are separate entries in the source; they are usually repeats but may differ in a detail not shown here. Equal values may be shown once. Non-standard residues stand in square brackets, D forms with d. Residues, ends and D or L forms follow the SMILES beside them. No end group written: not given here.

Assays:
[1] = tested on: CVB5; experiment: Anti-CVB5 effect in RD cells, qRT-PCR; assay type: cell-based, Coxsackievirus B5; conditions: Example 20, read-out: IC50 against CVB5
Description: • (1) […] were plated in a 24-well cell plate. • (2) After the cells reached 70%-80% confluence, the MEM medium containing 10% serum was replaced with a MEM medium containing 2% serum (0.5 ml/well).

[2] = tested on: CVB3; experiment: Anti-CVB3 effect in Vero cells, qRT-PCR; assay type: cell-based, Coxsackievirus B3; conditions: text of Example 21, read-out: IC50 against CVB3
Description: • (1) Vero cells were plated in a 24-well cell plate. • (2) After the cells reached 70%-80% confluence, the MEM medium containing 10% serum was replaced with a MEM medium containing 2% serum and CVB3 virus, 0.5 ml per well. MOI of the virus was 0.01. […]

[3] = Cytotoxicity by CCK-8 in Vero cells; assay type: cell-based; conditions: 24 h, read-out: Cell viability (%)
Description: (§1) The experiment was performed as follows. • (1) Vero cells were plated in a 96-well plate at 100 μl per well. • (2) After the cells reached 70%-80% confluence, the MEM medium containing 10% serum was replaced with a MEM medium containing 2% serum. Then, polypeptide BP8, BP10 or BP15 was added to generate gradient concentrations of […], […], 12.5 μM, 25 μM, 50 μM, 100 μM, and 200 μM (final concentrations), respectively. • (3) The samples were collected 24 hours after the addition of the polypeptide, and 10 μl of live cell detection reagent CCK-8 was added to each well and mixed well. • (4) The plate was placed at 37° C. for 4 h. • (5) The absorbance value at OD450 was measured with a microplate reader.

[4] = tested on: Vero cells; experiment: Cytotoxicity by CCK-8 in Vero cells; assay type: cell-based; conditions: for Cell viability (%): 24 h
Description: as §1

[5] = tested on: EV71; experiment: Anti-EV71 efficiency in Vero cells, viral RNA by qRT-PCR; assay type: cell-based, enterovirus 71; conditions: read-out: IC50 against EV71 by qRT-PCR
Source text: […]

[6] = tested on: EV71; experiment: Antiviral activity against EV71 in mice, virus copies in lung by qRT-PCR; assay type: in vivo, ICR mice
Source text: • (1) 10 2-day-old ICR mice were randomly divided into two groups, 5 in each group.

[7] = 20 mg/kg i.p. once daily for 3 days
Source text: • (1) A total of 12 10-day-old suckling mice were randomly divided into two groups, 6 in each group.

## YGRKKRRQRRRGSGEAVREYCK [BP8]
[1]
  IC50: 1540 nM
[2]
  IC50: 4.12 µM
[3]; 3.0625 μM
  viability at 24 h, 3.0625 µM: 103%
[3]; 6.125 μM
  viability at 24 h, 6.125 µM: 101%
[3]; 12.5 μM
  viability at 24 h, 12.5 µM: 95.5%
[3]; 25 μM
  viability at 24 h, 25 µM: 96.6%
[3]; 50 μM
  viability at 24 h, 50 µM: 94.4%
[3]; 100 μM
  viability at 24 h, 100 µM: 99.7%
[3]; 200 μM
  viability at 24 h, 200 µM: 87.2%
[4]; 3.0625 μM
  Cell viability (%): 105.2007% and 108.7417%
[4]; 6.125 μM
  Cell viability (%): 111.3814% and 119.3004%
[4]; 12.5 μM
  Cell viability (%): 106.8102% and 109.1924%
[4]; 25 μM
  Cell viability (%): 99.47% and 113.6348%
[4]; 50 μM
  Cell viability (%): 108.2266% and 112.4759%
[4]; 100 μM
  Cell viability (%): 96.7% and 97.35%
[4]; 200 μM
  Cell viability (%): 92.0023% and 92.52%
[4]; CCK-8, 24 h
  cytotoxicity, result in words: not toxic to cells within 200 μM

## RRRRRRRREEVRQYCRDQ [P2]
[5]
  IC50: 1960 nM

## CC(=O)N[C@H](CCCNC(=N)N)C(=O)N[C@H](CS)C(=O)N[C@H](Cc1ccc(O)cc1)C(=O)N[C@H](CCC(N)=O)C(=O)N[C@H](CCCNC(=N)N)C(=O)N[C@@H](C(=O)N[C@H](CCC(=O)O)C(=O)N[C@H](CCC(=O)O)C(=O)N1CCC[C@@H]1C(=O)N1CCC[C@@H]1C(=O)N[C@H](CCCNC(=N)N)C(=O)N[C@H](CCCNC(=N)N)C(=O)N[C@H](CCCNC(=N)N)C(=O)N[C@H](CCC(N)=O)C(=O)N[C@H](CCCNC(=N)N)C(=O)N[C@H](CCCNC(=N)N)C(=O)N[C@H](CCCCN)C(=O)N[C@H](CCCCN)C(=O)N[C@H](CCCNC(=N)N)C(=O)NCC(=O)N[C@H](Cc1ccc(O)cc1)C(N)=O)C(C)C [ER-DRI] (Ac-[dR][dC][dY][dQ][dR][dV][dE][dE][dP][dP][dR][dR][dR][dQ][dR][dR][dK][dK][dR]G[dY]-NH2)
[6]; 10 mg/kg i.p. every 12 h for 5 days vs PBS
  EV71 viral load in mouse lung, in words: can significantly reduce the viral load of EV71 in the mouse lung
[6]; 2-day-old ICR mice, EV71 i.p., 10 mg/kg i.p. every 12 h for 5 days, individual animals, 10 mg/kg
  Number of virus copy in lung tissue (Copies/g): 294534 Copies/g and 484192 Copies/g and 2956937 Copies/g and 549759 Copies/g and 116302 Copies/g
[7]; four weeks after administration
  HE staining of brain, liver, lung and kidney, in words: no significant pathological change in the brain, liver, lung and kidney
[7]; 10-day-old suckling mice, weight recorded 15 days
  body weight vs PBS group, in words: no significant difference in body weight
